# Data from patent US12617779B2, “Self degradation-type CDK9 inhibitor prodrug and liposome encapsulating same” (Sumitomo Pharma Co., Ltd., priority 2021, dated 2026).
# Test: Evaluation of conversion rate to active form in buffer solution (Experimental Example 1)
# Type: physicochemical
# Details: for Alvocidib amount produced, after subtracting the 28.2% Alvocidib of the sample (Table 36-2) / Production rate of Alvocidib / Residual rate: 37° C.; for Production rate of Alvocidib / Residual rate: 25 umol/L in buffer solution
# Summary of the method: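 Conversion to Alvocidib was followed by HPLC over 3 hours at 37° C, with test compounds at 25 umol/L in 50 mM citrate or phosphate buffers spanning pH 5.0–7.4.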
structure (smiles),measurement,setting,value
"CN1CC[C@H](c2c(OC(=O)N(CCCC(F)(F)F)CC3CCCCN3)cc(O)c3c(=O)cc(-c4ccccc4Cl)oc23)[C@H](O)C1 (stereo partly drawn) [Example 14, 2-(2-chlorophenyl)-5-hydroxy-8-[(3S,4R)-3-hydroxy-1-methylpiperidin-4-yl]-4-oxo-4H-1-benzopyran-7-yl [(piperidin-2-yl)methyl](4,4,4-trifluorobutyl)carbamate]","Alvocidib amount produced, after subtracting the 28.2% Alvocidib of the sample (Table 36-2)","pH5.0, 0 hr",1.0%
same,Production rate of Alvocidib,"pH5.0, 0 hr",29.2%
same,Residual rate,"pH5.0, 0 hr",56.6%
same,Stability in buffer solution at pH 5,"pH 5, 37° C., up to 2 or 3 hours",stable
same,"Alvocidib amount produced, after subtracting the 28.2% Alvocidib of the sample (Table 36-2)","pH5.0, 0.5 hr",1.7%
same,Production rate of Alvocidib,"pH5.0, 0.5 hr",29.9%
same,Residual rate,"pH5.0, 0.5 hr",54.6%
same,"Alvocidib amount produced, after subtracting the 28.2% Alvocidib of the sample (Table 36-2)","pH5.0, 1 hr",3.5%
same,Production rate of Alvocidib,"pH5.0, 1 hr",31.7%
same,Residual rate,"pH5.0, 1 hr",53.0%
same,"Alvocidib amount produced, after subtracting the 28.2% Alvocidib of the sample (Table 36-2)","pH5.0, 2 hr",4.9%
same,Production rate of Alvocidib,"pH5.0, 2 hr",33.1%
same,Residual rate,"pH5.0, 2 hr",51.0%
same,"Alvocidib amount produced, after subtracting the 28.2% Alvocidib of the sample (Table 36-2)","pH5.0, 3 hr",5.2%
same,Production rate of Alvocidib,"pH5.0, 3 hr",33.4%
same,Residual rate,"pH5.0, 3 hr",52.7%
same,"Alvocidib amount produced, after subtracting the 28.2% Alvocidib of the sample (Table 36-2)","pH5.5, 0 hr",0.8%
same,Production rate of Alvocidib,"pH5.5, 0 hr",29.0%
same,Residual rate,"pH5.5, 0 hr",57.5%
same,"Alvocidib amount produced, after subtracting the 28.2% Alvocidib of the sample (Table 36-2)","pH5.5, 0.5 hr",2.7%
same,Production rate of Alvocidib,"pH5.5, 0.5 hr",30.9%
same,Residual rate,"pH5.5, 0.5 hr",55.8%
same,"Alvocidib amount produced, after subtracting the 28.2% Alvocidib of the sample (Table 36-2)","pH5.5, 1 hr",4.5%
same,Production rate of Alvocidib,"pH5.5, 1 hr",32.7%
same,Residual rate,"pH5.5, 1 hr",54.3%
same,"Alvocidib amount produced, after subtracting the 28.2% Alvocidib of the sample (Table 36-2)","pH5.5, 2 hr",7.2%
same,Production rate of Alvocidib,"pH5.5, 2 hr",35.4%
same,Residual rate,"pH5.5, 2 hr",48.6%
same,"Alvocidib amount produced, after subtracting the 28.2% Alvocidib of the sample (Table 36-2)","pH5.5, 3 hr",9.7%
same,Production rate of Alvocidib,"pH5.5, 3 hr",37.9%
same,Residual rate,"pH5.5, 3 hr",47.7%
same,"Alvocidib amount produced, after subtracting the 28.2% Alvocidib of the sample (Table 36-2)","pH6.0, 0 hr",0.9%
same,Production rate of Alvocidib,"pH6.0, 0 hr",29.1%
same,Residual rate,"pH6.0, 0 hr",55.8%
same,"Alvocidib amount produced, after subtracting the 28.2% Alvocidib of the sample (Table 36-2)","pH6.0, 0.5 hr",6.2%
same,Production rate of Alvocidib,"pH6.0, 0.5 hr",34.4%
same,Residual rate,"pH6.0, 0.5 hr",49.7%
same,"Alvocidib amount produced, after subtracting the 28.2% Alvocidib of the sample (Table 36-2)","pH6.0, 1 hr",10.9%
same,Production rate of Alvocidib,"pH6.0, 1 hr",39.1%
same,Residual rate,"pH6.0, 1 hr",44.8%
same,"Alvocidib amount produced, after subtracting the 28.2% Alvocidib of the sample (Table 36-2)","pH6.0, 2 hr",22.0%
same,Production rate of Alvocidib,"pH6.0, 2 hr",50.2%
same,Residual rate,"pH6.0, 2 hr",31.8%
same,"Alvocidib amount produced, after subtracting the 28.2% Alvocidib of the sample (Table 36-2)","pH6.0, 3 hr",27.7%
same,Production rate of Alvocidib,"pH6.0, 3 hr",55.9%
same,Residual rate,"pH6.0, 3 hr",24.5%
same,"Alvocidib amount produced, after subtracting the 28.2% Alvocidib of the sample (Table 36-2)","pH6.5, 0 hr",3.4%
same,Production rate of Alvocidib,"pH6.5, 0 hr",31.6%
same,Residual rate,"pH6.5, 0 hr",52.2%
same,"Alvocidib amount produced, after subtracting the 28.2% Alvocidib of the sample (Table 36-2)","pH6.5, 0.5 hr",17.6%
same,Production rate of Alvocidib,"pH6.5, 0.5 hr",45.8%
same,Residual rate,"pH6.5, 0.5 hr",35.2%
same,"Alvocidib amount produced, after subtracting the 28.2% Alvocidib of the sample (Table 36-2)","pH6.5, 1 hr",28.9%
same,Production rate of Alvocidib,"pH6.5, 1 hr",57.1%
same,Residual rate,"pH6.5, 1 hr",22.9%
same,"Alvocidib amount produced, after subtracting the 28.2% Alvocidib of the sample (Table 36-2)","pH6.5, 2 hr",34.8%
same,Production rate of Alvocidib,"pH6.5, 2 hr",63.0%
same,Residual rate,"pH6.5, 2 hr",14.0%
same,"Alvocidib amount produced, after subtracting the 28.2% Alvocidib of the sample (Table 36-2)","pH6.5, 3 hr",44.4%
same,Production rate of Alvocidib,"pH6.5, 3 hr",72.6%
same,Residual rate,"pH6.5, 3 hr",5.1%
same,"Alvocidib amount produced, after subtracting the 28.2% Alvocidib of the sample (Table 36-2)","pH7.0, 0 hr",2.5%
same,Production rate of Alvocidib,"pH7.0, 0 hr",30.7%
same,Residual rate,"pH7.0, 0 hr",53.4%
same,"Alvocidib amount produced, after subtracting the 28.2% Alvocidib of the sample (Table 36-2)","pH7.0, 0.5 hr",33.8%
same,Production rate of Alvocidib,"pH7.0, 0.5 hr",62.0%
same,Residual rate,"pH7.0, 0.5 hr",16.3%
same,"Alvocidib amount produced, after subtracting the 28.2% Alvocidib of the sample (Table 36-2)","pH7.0, 1 hr",39.8%
same,Production rate of Alvocidib,"pH7.0, 1 hr",68.0%
same,Residual rate,"pH7.0, 1 hr",8.4%
same,"Alvocidib amount produced, after subtracting the 28.2% Alvocidib of the sample (Table 36-2)","pH7.0, 2 hr",47.3%
same,Production rate of Alvocidib,"pH7.0, 2 hr",75.5%
same,Residual rate,"pH7.0, 2 hr",1.1%
same,"Alvocidib amount produced, after subtracting the 28.2% Alvocidib of the sample (Table 36-2)","pH7.0, 3 hr",47.0%
same,Production rate of Alvocidib,"pH7.0, 3 hr",75.2%
same,Residual rate,"pH7.0, 3 hr",0.4%
same,"Alvocidib amount produced, after subtracting the 28.2% Alvocidib of the sample (Table 36-2)","pH7.4, 0 hr",7.7%
same,Production rate of Alvocidib,"pH7.4, 0 hr",35.9%
same,Residual rate,"pH7.4, 0 hr",45.8%
same,Conversion to Alvocidib at pH 7.4,"pH 7.4, 37° C., up to 3 hours",rapidly converted to Alvocidib
same,"Alvocidib amount produced, after subtracting the 28.2% Alvocidib of the sample (Table 36-2)","pH7.4, 0.5 hr",43.4%
same,Production rate of Alvocidib,"pH7.4, 0.5 hr",71.6%
same,Residual rate,"pH7.4, 0.5 hr",4.6%
same,"Alvocidib amount produced, after subtracting the 28.2% Alvocidib of the sample (Table 36-2)","pH7.4, 1 hr",48.4%
same,Production rate of Alvocidib,"pH7.4, 1 hr",76.6%
same,Residual rate,"pH7.4, 1 hr",0.7%
same,"Alvocidib amount produced, after subtracting the 28.2% Alvocidib of the sample (Table 36-2)","pH7.4, 2 hr",47.4%
same,Production rate of Alvocidib,"pH7.4, 2 hr",75.6%
same,Residual rate,"pH7.4, 2 hr",0.2%
same,"Alvocidib amount produced, after subtracting the 28.2% Alvocidib of the sample (Table 36-2)","pH7.4, 3 hr",47.5%
same,Production rate of Alvocidib,"pH7.4, 3 hr",75.7%
same,Residual rate,"pH7.4, 3 hr",0.3%
